# Results published in publication PMC11359197 (Viruses, 2024).
# Where a SMILES comes first, the peptide text is derived from it.
# Tested on: SARS-CoV-2 M^pro precursors Nsp4-4F-M^pro-GST and 4F-M^pro-GST
# Format: cell-based
row,SMILES,AlphaLISA signal (precursor-mediated N-terminal processing)
1,Cc1cccc(C)c1OCC(=O)N[C@@H](Cc1ccccc1)[C@@H](O)C[C@H](Cc1ccccc1)NC(=O)[C@H](C(C)C)N1CCCNC1=O [lopinavir],background levels
2,"CC(C)(C)NC(=O)N[C@H](C(=O)N1C[C@H]2[C@@H]([C@H]1C(=O)NC(CC1CCC1)C(=O)C(N)=O)C2(C)C)C(C)(C)C (stereo partly drawn) [boceprevir, Boceprevir]",no detectable impact
3,CC(C)C[C@H](NC(=O)[C@H]1O[C@@H]1C(=O)O)C(=O)NCCCCN=C(N)N [E-64],background levels
4,COC(=O)N[C@H](C(=O)N[C@@H](Cc1ccccc1)[C@@H](O)CN(Cc1ccc(-c2ccccn2)cc1)NC(=O)[C@@H](NC(=O)OC)C(C)(C)C)C(C)(C)C [atazanavir],background levels
5,CSCC[C@@H](C=O)NC(=O)[C@H](CC(C)C)NC(=O)[C@H](CC(C)C)NC(C)=O [calpain inhibitor II] (Ac-Leu-Leu-Met-aldehyde),no detectable impact
6,CC(NC(=O)[C@H](Cc1ccccc1)NC(=O)OCc1ccccc1)C(=O)CF (stereo partly drawn) [Z-FA-FMK],no detectable impact
